{
  "source": "patent US20100098632A1",
  "about": "“HYDROXYAPATITE PARTICLES” (priority 2006, published 2010)",
  "key": {"[1]": {"experiment": "In vivo biodistribution of Sm-HAP by gamma camera / microSPECT-CT imaging", "conditions": "mice, intravenous, 200 μCi for Sm-HAP", "protocol": "FIG. 1 contains photographs of the distribution of Sm-HAP uptake in mice. […] The mouse was injected intravenously with Sm-153 HA nanoparticles synthesized at 50° C. Imaging was performed 2 hours post injection.\nFIG. 2 contains a photograph of the distribution of Sm-153 EDTMP determined via non-invasive imaging using a small animal gamma camera (X-SPECT).\nTo determine the in vivo biodistribution of Sm-HAP, 200 μCi of Sm-HAP were administered intravenously to mice in 150 to 200 μL. The mice were imaged non-invasively using a microSPECT/CT machine."}, "[2]": {"experiment": "Labeling of preformed hydroxyapatite particles by incubation with Sm-153-EDTMP", "assay_type": "physicochemical", "conditions": "1 mg particles with 200 μCi for up to 2 hours at room temperature", "protocol": "The unlabeled, hydroxyapatite particles were incubated with Sm-153-EDTMP. Briefly, 1 mg of hydroxyapatite particles was incubated with 200 μCi of Sm-153-EDTMP for up to 2 hours at room temperature (25° C.). The resulting hydroxyapatite particles were spun down and resuspended in 10 mM Tris buffer pH 7.2. The amount of Sm-153 radioactivity in the hydroxyapatite particles was determined and found to be negligible."}, "Hep3B/Fluc": {"test_system": "Hep3B/Fluc", "experiment": "Mouse liver cancer model, bioluminescent tumor imaging", "assay_type": "in vivo, Nude mice", "conditions": "intrahepatic Hep3B/Fluc, treatment day seven, intravenous", "protocol": "Experiments were performed to evaluate Sm-153-hydroxyapatite particles (Sm-HAP) alone or in combination with PS-341, a radiosensitizer drug, in a mouse liver cancer model. Nude mice were injected intrahepatically with Hep3B/Fluc, a human hepatocellular carcinoma cell line expressing Firefly luciferase. Tumor growth was determined using a Xenogen Bioluminescent IVIS 200 Imaging System. On day seven after tumor implantation, mice were injected intravenously via the tail vein with 200 μg HAP, 0.5 mCi free Sm-153-EDTMP, 0.5 mCi Sm-HAP alone, or 0.5 mCi Sm-HAP in combination with two intraperitoneal doses of 0.5 mg/kg PS-341, the first administered one day prior to Sm-HAP administration and the second administered one day after Sm-HAP administration. […] In contrast, tumors in mice treated with the combination therapy (Sm-HAP and two doses of PS-341) regressed, as evidenced by a decrease in the signal (FIG. 7)."}, "[3]": {"experiment": "Clodronate loading on hydroxyapatite particles", "assay_type": "physicochemical", "conditions": "for binding (loading) efficiency of clodronate to HA: 20 mg clodronate per 1 mg particles, disodium salt", "protocol": "Clodronate (dichloromethylenediphosphonic acid disodium salt; Sigma, St. Louis, Mo.) was dissolved in distilled water (200 mg/mL) and 20 mg was added to 1 mg of hydroxyapatite particles. The mixture was incubated for 30 minutes. After hydroxyapatite particle binding, free clodronate in the supernatant was complexed with copper (II) ions (Cu^2) in nitric acid solution and the concentration was assayed by ultraviolet spectrophotometry as described elsewhere (Ostovic et al., Pharm Res., 10:470-472 (1993)). The amount of clodronate bound to hydroxyapatite particles was calculated by subtracting free clodronate from input clodronate.\nThe feasibility of utilizing the HA-biphosphonate interaction for drug loading onto the particles also was tested. Twenty milligrams of clodronate, a biphosphonate, was mixed with 1 mg of hydroxyapatite particles (40 nm in size) in 10 mM Tris-Cl buffer (pH 7.2), and the mixture was incubated with continuous shaking at room temperature for 30 minutes. Clodronate could be loaded onto hydroxyapatite particles at 10% efficiency (2 mg clodronate/mg HAP; n=3). […] The clodronate that was loaded on hydroxyapatite particles remained biologically active."}},
  "data": [
    {"smiles": "O=P([O-])(O)CN(CCN(CP(=O)([O-])O)CP(=O)(O)O)CP(=O)([O-])O.[153Sm+3]", "note": "[Sm-153-EDTMP]", "values": [
      {"measurement": "in vivo biodistribution (uptake sites by imaging)", "setting": "[1]", "result": "binds to the skeleton of the mouse"},
      {"measurement": "amount of Sm-153 radioactivity in the hydroxyapatite particles", "setting": "[2]", "result": "negligible"},
      {"measurement": "tumor course by bioluminescent signal", "setting": "Hep3B/Fluc", "result": "progressed"}
    ]},
    {"smiles": "O=P([O-])([O-])C(Cl)(Cl)P(=O)(O)O.[Na+].[Na+]", "note": "[clodronate, dichloromethylenediphosphonic acid disodium salt]", "values": [
      {"measurement": "final concentration of clodronate on HA", "setting": "[3]; 40 nm HA", "result": 2, "unit": "mg clodronate/mg HA"},
      {"measurement": "binding (loading) efficiency of clodronate to HA", "setting": "[3]; 40 nm HA", "result": 10, "unit": "%"},
      {"measurement": "binding (loading) efficiency of clodronate to HA", "setting": "[3]; 40 nm HA, listed as clondronate", "result": "about 10%"},
      {"measurement": "clodronate loaded per mg particles", "setting": "[3]; 40 nm, 10 mM Tris-Cl pH 7.2, 30 minutes, n=3", "result": 2, "unit": "mg clodronate/mg HAP"}
    ]}
  ]
}
